Source: patent US20240067645A1, “HETEROCYCLIC COMPOUND AS DIACYLGLYCEROL KINASE INHIBITOR AND USE THEREOF” (LG CHEM, LTD., priority 2020, published 2024)

Target: DGKα (Homo sapiens (Human), UniProt P23743)
Assay: Measurement of inhibitory effect against DGKα enzyme (ADP-Glo)
Format: biochemical
Conditions: DGKα enzyme, ADP-Glo luminescence, OAG/ATP substrate, 20 min room temperature; read-out: IC50
Method: Experimental Example: Measurement of Inhibitory Effect Against DGKα Enzyme
First, 3×OAG (3 mM)/ATP (0.45 mM) substrate solution was prepared from 1× substrate assay buffer (40 mM MOPS (pH 7.2), 20 mM MgCl2, 1 mM DTT, 0.4 mM CaCl2), 3 mM sodium deoxycholate, 100 mM NaCl, 0.1 mg/mL BSA, 0.12% NP-40), and vortexed thoroughly for 3 minutes to induce detergent-lipid micelle formation. Then, 3×DGKα (7.5 nM) enzyme solution was prepared from 2× enzyme assay buffer (80 mM MOPS (pH 7.2), 2 mM DTT, 200 mM NaCl, 0.2 mg/mL BSA) and vortexed for a short time.
After preparing the above two solutions, a half-area opaque 96-well assay plate was prepared, and 10 μL of 3× diluted compound solution (30 μM to 0 μM) was transferred to each well. Next, 10 μL of 3×DGK enzyme solution was transferred to the same plate, mixed by pipetting, and then 10 μL of 3×OAG/ATP substrate solution was added to the assay plate and mixed well. The plate was incubated at room temperature for 20 minutes for the enzyme reaction. Next, 15 μL of ADP-Glo reagent was added to each well and mixed by pipetting, followed by incubating the plate at room temperature for 40 minutes to deplete the remaining ATPs. After this step, 30 μL of kinase detection reagent was added and mixed, and the plate was incubated at room temperature for an additional 20 minutes and luminescence was measured by Envision to calculate the IC50 value of each compound.
The measurement results are represented in Table 1 (+: IC50>5 μM, ++: 5 μM>IC50>300 nM, +++: IC50<300 nM).

Chain of DGKα (P23743 whole entry, species assumed): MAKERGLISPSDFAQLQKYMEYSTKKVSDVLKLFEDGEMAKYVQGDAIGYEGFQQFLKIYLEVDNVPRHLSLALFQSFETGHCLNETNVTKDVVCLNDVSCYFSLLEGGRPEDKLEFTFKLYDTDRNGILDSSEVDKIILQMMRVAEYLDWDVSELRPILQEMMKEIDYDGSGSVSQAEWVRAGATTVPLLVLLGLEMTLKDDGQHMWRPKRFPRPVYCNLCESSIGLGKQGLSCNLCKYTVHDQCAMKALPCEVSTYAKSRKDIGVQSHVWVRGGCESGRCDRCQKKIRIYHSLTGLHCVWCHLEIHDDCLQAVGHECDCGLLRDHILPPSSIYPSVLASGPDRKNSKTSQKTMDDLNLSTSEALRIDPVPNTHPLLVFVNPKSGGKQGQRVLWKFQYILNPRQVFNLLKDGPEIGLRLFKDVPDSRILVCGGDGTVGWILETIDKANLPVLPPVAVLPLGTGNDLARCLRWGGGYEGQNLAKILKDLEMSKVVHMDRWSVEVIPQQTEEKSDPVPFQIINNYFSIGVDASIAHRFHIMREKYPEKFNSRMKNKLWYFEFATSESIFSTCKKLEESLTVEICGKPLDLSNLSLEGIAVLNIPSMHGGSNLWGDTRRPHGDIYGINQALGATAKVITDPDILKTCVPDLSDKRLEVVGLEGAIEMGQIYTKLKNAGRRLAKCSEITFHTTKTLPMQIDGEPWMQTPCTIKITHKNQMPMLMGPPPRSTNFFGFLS

Row | SMILES | IC50
1 | Cn1c(=O)c(=O)n(C2CCN(C(c3cccc(Cl)c3)c3cccc(Cl)c3)CC2)c2ncc(Cl)cc21 [Example 45, 4-(1-(bis(3-chlorophenyl)methyl)piperidin-4-yl)-7-chloro-1-methyl-1,4-dihydropyrido[2,3-b]pyrazine-2,3-dione] | 300 to 5000 nM
2 | Cn1c(=O)c(=O)n([C@H]2C[C@H]3CC[C@@H](C2)N3Cc2ccc(OC(F)(F)F)cc2)c2ncc(Cl)cc21 [Example 32, 7-chloro-1-methyl-4-((1R,3s,5S)-8-(4-(trifluoromethoxy)benzyl)-8-azabicyclo[3.2.1]octan-3-yl)-1,4-dihydropyrido[2,3-b]pyrazine-2,3-dione] | < 300 nM
3 | Cn1c(=O)c(=O)n(C2CCN(Cc3ccc(OC(F)(F)F)cc3)CC2)c2ncc(C(=O)O)cc21 [Example 62, 1-methyl-2,3-dioxo-4-(1-(4-(trifluoromethoxy)benzyl)piperidin-4-yl)-1,2,3,4-tetrahydropyrido[2,3-b]pyrazine-7-carboxylic acid] | 300 to 5000 nM
4 | Cc1ccc2c(n1)n(C1CCN(Cc3cccc(Oc4ccccc4)c3)CC1)c(=O)c(=O)n2C [Example 21, 1,6-dimethyl-4-(1-(3-phenoxybenzyl)piperidin-4-yl)-1,4-dihydropyrido[2,3-b]pyrazine-2,3-dione] | 300 to 5000 nM
5 | C[C@@H]1CC(n2c(=O)c(=O)n(C)c3cc(Cl)cnc32)[C@@H](C)CN1Cc1ccc(OC(F)(F)F)cc1 (stereo partly drawn) [Example 49] | 300 to 5000 nM
6 | CC(=O)c1ccc2c(n1)n(C1CCN(Cc3ccc(OC(F)(F)F)cc3)CC1)c(=O)c(=O)n2C [Example 53, 6-acetyl-1-methyl-4-(1-(4-(trifluoromethoxy)benzyl)piperidin-4-yl)-1,4-dihydropyrido[2,3-b]pyrazine-2,3-dione] | 300 to 5000 nM
7 | Cn1cc(-c2cnc3c(c2)n(C)c(=O)c(=O)n3C2CCN(Cc3ccc(OC(F)(F)F)cc3)CC2)cn1 [Example 36, 1-methyl-7-(1-methyl-1H-pyrazol-4-yl)-4-(1-(4-(trifluoromethoxy)benzyl)piperidin-4-yl)-1,4-dihydropyrido[2,3-b]pyrazine-2,3-dione] | < 300 nM
8 | Cc1ccc2c(n1)n(C1CCN(Cc3ccc(OC(F)(F)F)cc3)CC1)c(=O)c(=O)n2C [Example 2, 1,6-dimethyl-4-(1-(4-(trifluoromethoxy)benzyl)piperidin-4-yl)-1,4-dihydropyrido[2,3-b]pyrazine-2,3-dione] | < 300 nM
9 | Cc1ccc2c(n1)n(C1CCN(Cc3ccc(Cl)cc3)CC1)c(=O)c(=O)n2C [Example 14, 4-(1-(4-chlorobenzyl)piperidin-4-yl)-1,6-dimethyl-1,4-dihydropyrido[2,3-b]pyrazine-2,3-dione] | 300 to 5000 nM
10 | Cc1ccc2c(n1)n(C1CCN(Cc3ccccc3-c3ccccc3)CC1)c(=O)c(=O)n2C [Example 10, 4-(1-([1,1′-biphenyl]-2-ylmethyl)piperidin-4-yl)-1,6-dimethyl-1,4-dihydropyrido[2,3-b]pyrazine-2,3-dione] | 300 to 5000 nM
11 | Cc1ccc2c(n1)n(C1CCN(Cc3cccc4cnccc34)CC1)c(=O)c(=O)n2C [Example 20, 4-(1-(isoquinolin-5-ylmethyl)piperidin-4-yl)-1,6-dimethyl-1,4-dihydropyrido[2,3-b]pyrazine-2,3-dione] | 300 to 5000 nM
12 | CC(C)Oc1ccc2c(n1)n(C1CCN(Cc3ccc(OC(F)(F)F)cc3)CC1)c(=O)c(=O)n2C [Example 58, 6-isopropoxy-1-methyl-4-(1-(4-(trifluoromethoxy)benzyl)piperidin-4-yl)-1,4-dihydropyrido[2,3-b]pyrazine-2,3-dione] | > 5000 nM
13 | COC(=O)c1cnc2c(c1)n(C)c(=O)c(=O)n2C1CCN(Cc2ccc(OC(F)(F)F)cc2)CC1 [Example 60, methyl 1-methyl-2,3-dioxo-4-(1-(4-(trifluoromethoxy)benzyl)piperidin-4-yl)-1,2,3,4-tetrahydropyrido[2,3-b]pyrazine-7-carboxylate] | < 300 nM
14 | Cn1c(=O)c(=O)n(C2CCN(Cc3ccc(OC(F)(F)F)cc3)CC2(C)C)c2ncc(Cl)cc21 (stereo not drawn) [Example 31, 7-chloro-4-(3,3-dimethyl-1-(4-(trifluoromethoxy)benzyl)piperidin-4-yl)-1-methyl-1,4-dihydropyrido[2,3-b]pyrazine-2,3-dione] | 300 to 5000 nM
15 | CN(C)C(=O)c1cnc2c(c1)n(C)c(=O)c(=O)n2C1CCN(Cc2ccc(OC(F)(F)F)cc2)CC1 [Example 64, N,N,1-trimethyl-2,3-dioxo-4-(1-(4-(trifluoromethoxy)benzyl)piperidin-4-yl)-1,2,3,4-tetrahydropyrido[2,3-b]pyrazine-7-carboxamide] | > 5000 nM
16 | Cn1c(=O)c(=O)n(C2CCN(Cc3ccc(OC(F)(F)F)cc3)CC2)c2ncc(C3CC3)cc21 [Example 40, 7-cyclopropyl-1-methyl-4-(1-(4-(trifluoromethoxy)benzyl)piperidin-4-yl)-1,4-dihydropyrido[2,3-b]pyrazine-2,3-dione] | > 5000 nM
17 | Cc1ccc2c(n1)n(C1CCN(Cc3cccc(Cl)c3)CC1)c(=O)c(=O)n2C [Example 13, 4-(1-(3-chlorobenzyl)piperidin-4-yl)-1,6-dimethyl-1,4-dihydropyrido[2,3-b]pyrazine-2,3-dione] | < 300 nM
18 | Cn1c(=O)c(=O)n(C2CCN(Cc3ccc(OC(F)(F)F)cc3)CC2)c2nc(Cl)ccc21 [Example 54, 6-chloro-1-methyl-4-(1-(4-(trifluoromethoxy)benzyl)piperidin-4-yl)-1,4-dihydropyrido[2,3-b]pyrazine-2,3-dione] | < 300 nM
19 | Cc1ccnc2c1n(C)c(=O)c(=O)n2C1CCN(Cc2ccc(OC(F)(F)F)cc2)CC1 [Example 56, 1,8-dimethyl-4-(1-(4-(trifluoromethoxy)benzyl)piperidin-4-yl)-1,4-dihydropyrido[2,3-b]pyrazine-2,3-dione] | > 5000 nM
20 | CCn1c(=O)c(=O)n(C2CCN(Cc3ccc(OC(F)(F)F)cc3)CC2)c2ncccc21 [Example 3, ethyl-4-(1-(4-(trifluoromethoxy)benzyl)piperidin-4-yl)-1,4-dihydropyrido[2,3-b]pyrazine-2,3-dione] | 300 to 5000 nM
21 | Cc1ccc2c(n1)n(C1CCN(Cc3ccccc3)CC1)c(=O)c(=O)n2C [Example 23, 4-(1-benzylpiperidin-4-yl)-1,6-dimethyl-1,4-dihydropyrido[2,3-b]pyrazine-2,3-dione] | 300 to 5000 nM
22 | Cn1c(=O)c(=O)n(C2CCN(Cc3ccc(OC(F)(F)F)cc3)CC2)c2nc(C#N)c(Br)cc21 [Example 38, 7-bromo-1-methyl-2,3-dioxo-4-(1-(4-(trifluoromethoxy)benzyl)piperidin-4-yl)-1,2,3,4-tetrahydropyrido[2,3-b]pyrazine-6-carbonitrile] | 300 to 5000 nM
23 | COc1ccc2c(n1)n(C1CCN(Cc3ccc(OC(F)(F)F)cc3)CC1)c(=O)c(=O)n2C [Example 55, 6-methoxy-1-methyl-4-(1-(4-(trifluoromethoxy)benzyl)piperidin-4-yl)-1,4-dihydropyrido[2,3-b]pyrazine-2,3-dione] | 300 to 5000 nM
24 | Cc1ccc2c(n1)n(C1CCN(Cc3cccc4ccccc34)CC1)c(=O)c(=O)n2C [Example 5, 1,6-dimethyl-4-(1-(naphthalen-1-ylmethyl)piperidin-4-yl)-1,4-dihydropyrido[2,3-b]pyrazine-2,3-dione] | < 300 nM
